Reference: patent publication US20240374535A1, “COMPOSITIONS AND METHODS FOR TREATING BIOFILM DISORDERS AND INFECTIONS” (AHV International B.V., priority 2021, published 2024)

Columns and labels:
[1] = system: Staphylococcus epidermis ATCC 35984 biofilm; assay: MBEC assay (biofilm eradication, CFU log reduction); format: cell-based, S. epidermidis; settings: 48 h grown biofilm, 20 h treatment, CFU log reduction vs untreated
Method in brief: (§1)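 Biofilms were grown 48 h static at 37 °C in TSB from inocula at OD600 0.2, then treated 20 h at 37 °C with 1, 0.5, 0.25 or 0.125 mM compound in saline (Tween 80 and DMSO each 0.63–0.08%), four replicates per condition. Resuspended biofilm was serially diluted and plated on TSA for 24 h; log CFU reduction versus untreated, with ≥1 counted as significant, in two independent experiments.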

[2] = system: Pseudomonas aeruginosa ATCC 27853 biofilm; assay: as above; format: cell-based, P. aeruginosa; settings: 48 h grown biofilm, 20 h treatment, CFU log reduction vs untreated
Method in brief: as §1

[3] = system: Pseudomonas aeruginosa ATCC 27853; assay: MIC assay (planktonic growth inhibition, OD600); format: cell-based, P. aeruginosa; settings: 24 h at 37° C.
Method in brief: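 Broth microdilution in MHB-II, two-fold series from 8 mM stock solution (Tween 80/DMSO co-diluted, 2.5% in top well). Inoculum from overnight TSA colonies adjusted to OD600 0.0008 (~10^6 CFU/mL); 24 h at 37° C., growth read as OD600; three independent experiments.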

[4] = system: udder cleft wound; assay: In vivo udder cleft dermatitis test: wound assessment after spray treatment; set-up: species or system cow; settings: for inflammation of the udder cleft wound after treatment: immediately after the treatment, later infection reduced and wound healed; for Conclusion (effect on udder cleft wound): over 60 days, all cows of the group

IC50 ([3]; Pseudomonas aeruginosa, ATCC27853, minimal concentration reducing final OD600 by 50%, read-out: P. aeruginosa MIC50) | IC90 ([3]; Pseudomonas aeruginosa, ATCC27853, minimal concentration reducing final OD600 by 90%, read-out: P. aeruginosa MIC90) | SMILES | S. epidermidis MBEC mM with log reduction ≥1 [1] | P. aeruginosa MBEC mM with log reduction ≥1 [2] | P. aeruginosa MIC50 ([3]; minimal concentration reducing final OD600 by 50%) | P. aeruginosa MIC90 ([3]; minimal concentration reducing final OD600 by 90%) | inflammation of the udder cleft wound after treatment [4] | Conclusion (effect on udder cleft wound) [4] | minimal effective concentration ([1]; read-out: S. epidermidis MBEC mM with log reduction ≥1) | minimal effective concentration ([2]; Pseudomonas aeruginosa, ATCC27853, read-out: P. aeruginosa MBEC mM with log reduction ≥1)
 |  | CSS(C)(=O)=O [Di-methyl thiosulfonate, methyl methane thiosulfonate] | 2 mM | 2 mM | 0.25 mM | 0.5 mM | fast inflammation reduction | Positive effect |  | 
1 mM | 2 mM | CCCS[S+]([O-])CCC (stereo not drawn) [Di-n-propyl thiosulfinate, S-propyl propane-1-sulfinothioate] |  |  |  |  | fast inflammation reduction | Positive effect | 2 mM | 4 mM
